Experimental data: PMC5814837 (Pest Management Science, 2017)

Experiments:
[1] = molecular target: mitochondrial succinate dehydrogenase (SDH) (Zymoseptoria tritici, UniProt F9X9V6+F9XH52+O42772, N33T/N34T); experiment: biochemical; conditions: IC50
[2] = molecular target: mitochondrial succinate dehydrogenase (SDH) (Zymoseptoria tritici, UniProt F9X9V6+F9XH52+O42772, N33T/N34T/V106L); experiment: biochemical; conditions: IC50

SMILES | IC50 [1] | IC50 [2]
Cc1cc(OC(C)C)ccc1C(=O)C(C)(C)NC(=O)c1sccc1C [Isofetamid, N‐[1,1‐dimethyl‐2‐(4‐isopropoxy‐o‐tolyl)‐2‐oxoethyl]‐3‐methylthiophene‐2‐carboxamide] | 46 ± 9 nM | > 32 µM
Cn1cc(C(=O)Nc2ccc(F)cc2-c2ccc(Cl)c(Cl)c2)c(C(F)F)n1 [Bixafen, bixafen] | 31 ± 17 nM | 0.044 ± 0.011 µM
O=C(NCCc1ncc(C(F)(F)F)cc1Cl)c1ccccc1C(F)(F)F [Fluopyram, fluopyram] | 134 ± 67 nM | 12.4 ± 1.32 µM
